# Test results taken from PubChem BioAssay (NCI).
#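 How tested: cells in 96-well plates exposed to compound for 48 hours at five concentrations. The concentration for full growth arrest is given as TGI.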
# Columns and labels:
# Test in all cases: NCI tumour cell line growth inhibition, 48 h
# 786-0 renal = tested on: 786-0 renal
# A498 renal = tested on: A498 renal
# A549 NSCLC = tested on: A549 NSCLC
# ACHN renal = tested on: ACHN renal
# CAKI-1 renal = tested on: CAKI-1 renal
# COLO 205 colon = tested on: COLO 205 colon
# DLD-1 colon = tested on: DLD-1 colon
# DMS 114 small cell lung = tested on: DMS 114 small cell lung
# DMS 273 small cell lung = tested on: DMS 273 small cell lung
# EKVX NSCLC = tested on: EKVX NSCLC
# HCC-2998 colon = tested on: HCC-2998 colon
# HCT-116 colon = tested on: HCT-116 colon
# HCT-15 colon = tested on: HCT-15 colon
# HOP-18 NSCLC = tested on: HOP-18 NSCLC
# HOP-62 NSCLC = tested on: HOP-62 NSCLC
# HOP-92 NSCLC = tested on: HOP-92 NSCLC
# HT29 colon = tested on: HT29 colon
# IGROV1 ovarian = tested on: IGROV1 ovarian
# K-562 leukemia = tested on: K-562 leukemia
# KM12 colon = tested on: KM12 colon
# KM20L2 colon = tested on: KM20L2 colon
# LOX IMVI melanoma = tested on: LOX IMVI melanoma
# LXFL 529 NSCLC = tested on: LXFL 529 NSCLC
# M14 melanoma = tested on: M14 melanoma
# M19-MEL melanoma = tested on: M19-MEL melanoma
# MALME-3M melanoma = tested on: MALME-3M melanoma
# MOLT-4 leukemia = tested on: MOLT-4 leukemia
# NCI-H226 lung = tested on: NCI-H226 lung
# NCI-H23 lung = tested on: NCI-H23 lung
# NCI-H522 lung = tested on: NCI-H522 lung
# OVCAR-3 ovarian = tested on: OVCAR-3 ovarian
# OVCAR-4 ovarian = tested on: OVCAR-4 ovarian
# OVCAR-5 ovarian = tested on: OVCAR-5 ovarian
# OVCAR-8 ovarian = tested on: OVCAR-8 ovarian
# RPMI-8226 leukemia = tested on: RPMI-8226 leukemia
# RXF 393 renal = tested on: RXF 393 renal
# RXF-631 renal = tested on: RXF-631 renal
# SF-268 CNS = tested on: SF-268 CNS
# SF-295 CNS = tested on: SF-295 CNS
# SF-539 CNS = tested on: SF-539 CNS
# SK-MEL-2 melanoma = tested on: SK-MEL-2 melanoma
# SK-MEL-28 melanoma = tested on: SK-MEL-28 melanoma
# SK-MEL-5 melanoma = tested on: SK-MEL-5 melanoma
# SK-OV-3 ovarian = tested on: SK-OV-3 ovarian
# SN12C renal = tested on: SN12C renal
# SNB-19 CNS = tested on: SNB-19 CNS
# SNB-75 CNS = tested on: SNB-75 CNS
# SNB-78 CNS = tested on: SNB-78 CNS
# SR leukemia = tested on: SR leukemia
# SW-620 colon = tested on: SW-620 colon
# TK-10 renal = tested on: TK-10 renal
# U251 CNS = tested on: U251 CNS
# UACC-257 melanoma = tested on: UACC-257 melanoma
# UACC-62 melanoma = tested on: UACC-62 melanoma
# UO-31 renal = tested on: UO-31 renal
# XF 498 CNS = tested on: XF 498 CNS
# CCRF-CEM leukemia = tested on: CCRF-CEM leukemia
# NCI-H460 lung = tested on: NCI-H460 lung
compound,measurement,setting,value
CN(C)CCCNC(=O)c1cccc2nc3ccccc3nc12,TGI,786-0 renal,> 100 µM
same,TGI,A498 renal,39.6 µM
same,TGI,A549 NSCLC,> 78.7 µM
same,TGI,ACHN renal,> 100 µM
same,TGI,CAKI-1 renal,> 78.2 µM
same,TGI,COLO 205 colon,> 48.3 µM
same,TGI,DLD-1 colon,> 100 µM
same,TGI,DMS 114 small cell lung,30 µM
same,TGI,DMS 273 small cell lung,> 100 µM
same,TGI,EKVX NSCLC,> 77.4 µM
same,TGI,HCC-2998 colon,50.4 µM
same,TGI,HCT-116 colon,34.7 µM
same,TGI,HCT-15 colon,> 82.4 µM
same,TGI,HOP-18 NSCLC,> 86.9 µM
same,TGI,HOP-62 NSCLC,45.5 µM
same,TGI,HOP-92 NSCLC,> 78.4 µM
same,TGI,HT29 colon,36.5 µM
same,TGI,IGROV1 ovarian,> 82.2 µM
same,TGI,K-562 leukemia,60.4 µM
same,TGI,KM12 colon,49.9 µM
same,TGI,KM20L2 colon,> 100 µM
same,TGI,LOX IMVI melanoma,39.8 µM
same,TGI,LXFL 529 NSCLC,> 95.2 µM
same,TGI,M14 melanoma,> 53.3 µM
same,TGI,M19-MEL melanoma,16.4 µM
same,TGI,MALME-3M melanoma,19.3 µM
same,TGI,MOLT-4 leukemia,> 100 µM
same,TGI,NCI-H226 lung,39.1 µM
same,TGI,NCI-H23 lung,33.5 µM
same,TGI,NCI-H522 lung,> 100 µM
same,TGI,OVCAR-3 ovarian,> 59.5 µM
same,TGI,OVCAR-4 ovarian,47.2 µM
same,TGI,OVCAR-5 ovarian,54.3 µM
same,TGI,OVCAR-8 ovarian,> 82.2 µM
same,TGI,RPMI-8226 leukemia,> 100 µM
same,TGI,RXF 393 renal,34.6 µM
same,TGI,RXF-631 renal,> 100 µM
same,TGI,SF-268 CNS,39.9 µM
same,TGI,SF-295 CNS,> 55.4 µM
same,TGI,SF-539 CNS,54.2 µM
same,TGI,SK-MEL-2 melanoma,29 µM
same,TGI,SK-MEL-28 melanoma,38.5 µM
same,TGI,SK-MEL-5 melanoma,> 100 µM
same,TGI,SK-OV-3 ovarian,> 100 µM
same,TGI,SN12C renal,> 100 µM
same,TGI,SNB-19 CNS,> 100 µM
same,TGI,SNB-75 CNS,> 100 µM
same,TGI,SNB-78 CNS,> 71.6 µM
same,TGI,SR leukemia,> 100 µM
same,TGI,SW-620 colon,> 54.9 µM
same,TGI,TK-10 renal,> 100 µM
same,TGI,U251 CNS,> 73.4 µM
same,TGI,UACC-257 melanoma,19.5 µM
same,TGI,UACC-62 melanoma,> 57.8 µM
same,TGI,UO-31 renal,> 71 µM
same,TGI,XF 498 CNS,2.1 µM
C=C(CS(=O)(=O)c1ccccc1)C(=O)OCC,TGI,786-0 renal,31.9 µM
same,TGI,A549 NSCLC,37.1 µM
same,TGI,ACHN renal,29.5 µM
same,TGI,CAKI-1 renal,33.9 µM
same,TGI,CCRF-CEM leukemia,12.2 µM
same,TGI,COLO 205 colon,38.9 µM
same,TGI,DLD-1 colon,21.4 µM
same,TGI,DMS 114 small cell lung,25.7 µM
same,TGI,DMS 273 small cell lung,35.5 µM
same,TGI,EKVX NSCLC,39.9 µM
same,TGI,HCC-2998 colon,35.1 µM
same,TGI,HCT-116 colon,29.9 µM
same,TGI,HCT-15 colon,35 µM
same,TGI,HOP-92 NSCLC,40 µM
same,TGI,HT29 colon,23.3 µM
same,TGI,IGROV1 ovarian,38.8 µM
same,TGI,K-562 leukemia,35 µM
same,TGI,KM12 colon,32.6 µM
same,TGI,KM20L2 colon,45.3 µM
same,TGI,LOX IMVI melanoma,24.2 µM
same,TGI,LXFL 529 NSCLC,27 µM
same,TGI,M14 melanoma,24.2 µM
same,TGI,MALME-3M melanoma,39.1 µM
same,TGI,MOLT-4 leukemia,17.8 µM
same,TGI,NCI-H226 lung,58.1 µM
same,TGI,NCI-H23 lung,37.2 µM
same,TGI,NCI-H460 lung,35.4 µM
same,TGI,NCI-H522 lung,12.9 µM
same,TGI,OVCAR-3 ovarian,26.5 µM
same,TGI,OVCAR-5 ovarian,34.8 µM
same,TGI,OVCAR-8 ovarian,22.4 µM
same,TGI,RXF 393 renal,24.4 µM
same,TGI,RXF-631 renal,16.8 µM
same,TGI,SF-268 CNS,40 µM
same,TGI,SF-295 CNS,32 µM
same,TGI,SF-539 CNS,33.2 µM
same,TGI,SK-MEL-2 melanoma,35 µM
same,TGI,SK-MEL-28 melanoma,28.9 µM
same,TGI,SK-OV-3 ovarian,28 µM
same,TGI,SN12C renal,31.1 µM
same,TGI,SNB-19 CNS,37.9 µM
same,TGI,SNB-75 CNS,32 µM
same,TGI,SW-620 colon,29.2 µM
same,TGI,TK-10 renal,31.8 µM
same,TGI,U251 CNS,30.7 µM
same,TGI,UACC-257 melanoma,25.9 µM
same,TGI,UACC-62 melanoma,13.8 µM
same,TGI,UO-31 renal,35.4 µM
same,TGI,XF 498 CNS,33.4 µM
